Results as given in patent US20250163057A1, “DCN-1 MODULATING COMPOUNDS AND METHODS OF USE THEREOF” (Cellarity, Inc., priority 2023, published 2025).

target: DCN1 protein (Homo sapiens (Human), UniProt Q96GG9); assay: Intact Protein MS Analysis with the RapidFire-TOF System (covalent adduct formation); type: binding; details: MS Emax; 400 nM DCN1, 3 hours at room temperature
Experimental: An MS assay was performed to evaluate the ability of the compounds to covalently modify DCN-1.
DCN1 protein, His-TEV-DCN1, were expressed in E. Coli. The His-tagged protein was first purified with an Ni-NTA column. The His-tag was cleaved using His-tag TEV protease and the His-tags were removed using a second Ni-NTA column. Protein purity was verified with SDS-PAGE and intact MS. DCN1 was dissolved in a buffer containing 25 mM Tris-HCl, 200 mM NaCl, and 1 mM DTT at 400 nM. 11 concentrations of compounds were added to the DCN1 solution and incubated at room temperature for 3 hours, unless otherwise specified. The reaction plates were quenched by adding 0.2% formic acid. […] The cartridge was re-equilibrated with loading buffer for 1 second before collection of the next sample. The Q-TOF was operated in TOF-only positive ionization mode set to the following parameters: Gas Temp=350 C, Drying Gas=7 l/min, Nebulizer=50 psi, Sheath Gas Temp=400 C, Sheath Gas Flow=12 l/min, Vcap=4000 V, Nozzle Voltage=1000 V, Fragmentor=125 V, Skimmer=65 V and Oct 1 RF Vpp=750V. Raw MS data files were deconvoluted and analyzed using the Agilent MassHunter Bioconfirm software package to identify both parent protein and expected compound adduct mass signatures.

Sequence of DCN1 protein (Q96GG9 whole entry): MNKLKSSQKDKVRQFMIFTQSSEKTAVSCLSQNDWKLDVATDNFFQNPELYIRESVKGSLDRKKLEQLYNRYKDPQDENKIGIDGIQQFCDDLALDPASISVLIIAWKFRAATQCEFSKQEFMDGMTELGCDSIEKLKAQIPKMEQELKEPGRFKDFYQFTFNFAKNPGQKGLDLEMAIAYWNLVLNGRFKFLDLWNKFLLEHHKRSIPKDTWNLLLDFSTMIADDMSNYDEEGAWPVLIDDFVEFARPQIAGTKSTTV

Compound | % Adduct Formation
C/C=C/C(=O)N[C@H](C)c1nn(-c2ccccc2)c2c1[C@H](c1ccc(F)cc1)[C@H](NC(=O)c1cccc(C(F)(F)F)c1)C(=O)N2CC (mixture of isomers) [Compound I-238] | + (MS Emax % adduct formation greater than or equal to 0.0 and less than or equal to 30.0)
CCN1C(=O)[C@@H](NC(=O)c2cccc(C(F)(F)F)c2)[C@@H](c2ccc(F)cc2)c2c(CN3C(=O)C=CC3=O)nn(-c3ccccc3)c21 (racemic) [Compound I-170] | + (MS Emax % adduct formation greater than or equal to 0.0 and less than or equal to 30.0)
CCN1C(=O)[C@@H](NC(=O)c2cccc(C(F)(F)F)c2)[C@@H](c2ccc(F)cc2)c2c(C(=O)N(C)[C@H](C#N)CCN(C)C)nn(-c3ccccc3)c21 (relative stereo) [Compound I-303, (4S,5S)—N-[(1S*)-1-cyano-3-(dimethylamino)propyl]-7-ethyl-4-(4-fluorophenyl)-N-methyl-6-oxo-1-phenyl-5-[3-(trifluoromethyl)benzamido]-4H,5H-pyrazolo[3,4-b]pyridine-3-carboxamide] | ++ (MS Emax % adduct formation greater than 30.0 and less than or equal to 80.0)
CCN1C(=O)[C@@H](NC(=O)c2cccc(C(F)(F)F)c2)[C@@H](c2ccc(F)cc2)c2c(CN(C)C(=O)/C=C/C(F)(F)F)nn(-c3ccccc3)c21 (racemic) [Compound I-219] | + (MS Emax % adduct formation greater than or equal to 0.0 and less than or equal to 30.0)
CCN1C(=O)[C@@H](NC(=O)c2cccc(C(F)(F)F)c2)[C@@H](c2ccc(F)cc2)c2c(N3C=CC3=O)nn(-c3ccccc3)c21 (racemic) [Compound I-194, N-((4S,5S)-7-ethyl-4-(4-fluorophenyl)-6-oxo-3-(2-oxoazet-1(2H)-yl)-1-phenyl-4,5,6,7-tetrahydro-1H-pyrazolo[3,4-b]pyridine-5-yl)-3-(trifluoromethyl)benzamide] | + (MS Emax % adduct formation greater than or equal to 0.0 and less than or equal to 30.0)
C=CC(=O)N[C@H](C)c1nn(-c2ccccc2)c2c1[C@H](c1ccc(F)cc1)[C@H](NC(=O)c1cccc(C(F)(F)F)c1)C(=O)N2CC (mixture of isomers) [Compound I-174] | + (MS Emax % adduct formation greater than or equal to 0.0 and less than or equal to 30.0)
CCN1C(=O)[C@@H](NC(=O)c2cccc(C(F)(F)F)c2)[C@@H](c2ccc(F)cc2)c2c(CNC(=O)C(Cl)Cl)nn(-c3ccccc3)c21 (racemic) [Compound I-169] | + (MS Emax % adduct formation greater than or equal to 0.0 and less than or equal to 30.0)
CCN1C(=O)[C@@H](NC(=O)c2cccc(C(F)(F)F)c2)[C@@H](c2ccc(F)cc2)c2c(CNC(=O)/C=C/CN3CCOCC3)nn(-c3ccccc3)c21 (racemic) [Compound I-183] | + (MS Emax % adduct formation greater than or equal to 0.0 and less than or equal to 30.0)
C=C(C)C(=O)N[C@H](C)c1nn(-c2ccccc2)c2c1[C@H](c1ccc(F)cc1)[C@H](NC(=O)c1cccc(C(F)(F)F)c1)C(=O)N2CC (mixture of isomers) [Compound I-191] | + (MS Emax % adduct formation greater than or equal to 0.0 and less than or equal to 30.0)
CCN1C(=O)[C@@H](NC(=O)c2cccc(C(F)(F)F)c2)[C@@H](c2ccc(F)cc2)c2c(CNC(=O)/C=C/CN(C)C)nn(-c3ccccc3)c21 (racemic) [Compound I-220] | + (MS Emax % adduct formation greater than or equal to 0.0 and less than or equal to 30.0)
CCN1C(=O)[C@@H](NC(=O)c2cccc(C(F)(F)F)c2)[C@@H](c2ccc(F)cc2)c2c(NC(=O)C(F)Cl)nn(-c3ccccc3)c21 (mixture of isomers) [Compound I-120] | + (MS Emax % adduct formation greater than or equal to 0.0 and less than or equal to 30.0)
C#Cc1nn(-c2ccccc2)c2c1[C@H](c1ccc(F)cc1)[C@@H](NC(=O)c1cccc(C(F)(F)F)c1)C(=O)N2CC (racemic) [Compound I-235, N-((4S,5R)-7-ethyl-3-ethynyl-4-(4-fluorophenyl)-6-oxo-1-phenyl-4,5,6,7-tetrahydro-1H-pyrazolo[3,4-b]pyridine-5-yl)-3-(trifluoromethyl)benzamide] | + (MS Emax % adduct formation greater than or equal to 0.0 and less than or equal to 30.0)
CCN1C(=O)[C@@H](NC(=O)c2cccc(C(F)(F)F)c2)[C@@H](c2ccc(F)cc2)c2c([C@H](C)NC(=O)CCl)nn(-c3ccccc3)c21 (mixture of isomers) [Compound I-175] | + (MS Emax % adduct formation greater than or equal to 0.0 and less than or equal to 30.0)
CCN1C(=O)[C@@H](NC(=O)c2cccc(C(F)(F)F)c2)[C@@H](c2ccc(F)cc2)c2c(CN3CC=CC3=O)nn(-c3ccccc3)c21 (racemic) [Compound I-193] | + (MS Emax % adduct formation greater than or equal to 0.0 and less than or equal to 30.0)
C#Cc1nn(-c2ccccc2)c2c1[C@H](c1ccc(F)cc1)[C@H](NC(=O)c1cccc(C(F)(F)F)c1)C(=O)N2CC (racemic) [Compound I-199, N-((4S,5S)-7-ethyl-3-ethynyl-4-(4-fluorophenyl)-6-oxo-1-phenyl-4,5,6,7-tetrahydro-1H-pyrazolo[3,4-b]pyridine-5-yl)-3-(trifluoromethyl)benzamide] | + (MS Emax % adduct formation greater than or equal to 0.0 and less than or equal to 30.0)
CCN1C(=O)[C@@H](NC(=O)c2cccc(C(F)(F)F)c2)[C@@H](c2ccc(F)cc2)c2c([C@@H](C)NC(=O)/C=C/C(F)(F)F)nn(-c3ccccc3)c21 (mixture of isomers) [Compound I-164] | + (MS Emax % adduct formation greater than or equal to 0.0 and less than or equal to 30.0)
CCN1C(=O)[C@@H](NC(=O)c2cccc(C(F)(F)F)c2)[C@@H](c2ccc(F)cc2)c2c(CNC(=O)CCl)nn(-c3ccccc3)c21 (racemic) [Compound I-229] | + (MS Emax % adduct formation greater than or equal to 0.0 and less than or equal to 30.0)
CC#CC(=O)N[C@H](C)c1nn(-c2ccccc2)c2c1[C@H](c1ccc(F)cc1)[C@H](NC(=O)c1cccc(C(F)(F)F)c1)C(=O)N2CC (mixture of isomers) [Compound I-209] | + (MS Emax % adduct formation greater than or equal to 0.0 and less than or equal to 30.0)
CC#Cc1nn(-c2ccccc2)c2c1[C@H](c1ccc(F)cc1)[C@H](NC(=O)c1cccc(C(F)(F)F)c1)C(=O)N2CC (racemic) [Compound I-225, rac-N-((4R,5R)-7-ethyl-4-(4-fluorophenyl)-6-oxo-1-phenyl-3-(prop-1-yn-1-yl)-4,5,6,7-tetrahydro-1H-pyrazolo[3,4-b]pyridine-5-yl)-3-(trifluoromethyl)benzamide] | + (MS Emax % adduct formation greater than or equal to 0.0 and less than or equal to 30.0)
C#CCNC(=O)c1nn(-c2ccccc2)c2c1[C@H](c1ccc(F)cc1)[C@H](NC(=O)c1cccc(C(F)(F)F)c1)C(=O)N2CC (racemic) [Compound I-242] | + (MS Emax % adduct formation greater than or equal to 0.0 and less than or equal to 30.0)
